Experimental data as given in patent US9102667B2, “N-arylaminomethylene benzothiophenones for treatment of cardiovascular disease” (FORSCHUNGSVERBUND BERLIN E.V., priority 2011, dated 2015).
Read-outs that look alike come from different tables or passages of the source.

Molecular target: AKAP-PKA interaction (Homo sapiens, UniProt P13861)
Assay: AKAP-PKA interaction (disruption) assays of Examples 1-3: alpha screen, surface plasmon resonance, ELISA (combined classification)
Type: binding
Details: for Activity in AKAP-PKA interaction assays (in words): assays of Examples 1-3
Experimental: The inhibition of the interaction of the alpha RII subunit of protein kinase A with AKAP18-alpha by the compounds according to the invention is determined as follows:
The experiment measures the suitability of candidate compounds for the inhibition of the interaction between AKAP and PKA. An AKAP-GST fusion construct is immobilized on glutathione donor beads and His-RII-alpha on Ni-chelate acceptor beads. To the extent that the partners interact, singlet oxygen from the donor beads becomes free and activates the fluorescence emission of the acceptor beads. The fluorescence emission determined in the microplate reader is proportional to the intensity of interaction of the protein partners. The IC50 is determined from the results of the measurement of several concentrations of one candidate compound.
The details of the process were as follows: Two protein Solutions A and B are produced in a buffer (phosphate NaCl buffer, 0.1% polysorbate 80, 0.1% [=1 mg/ml BSA]). These contain (A) the histidine-6-tagged fusion construct RII-alpha-His (3.125 nmol/l) and (B) the glutathione-S-transferase-tagged fusion construct GST-AKAP18-alpha-d2-10 (6.25 nmol/l). One volume unit each of protein solution and bead suspension are incorporated, specifically Solution A of the His6-tagged protein with Ni-chelate bead suspension and Solution B of the GST-fusion protein with glutathione beads (Perkin Elmer Product No. 6765302), and in doing so the concentrations are selected according to the manufacturers information. The Mixtures A and B obtained are incubated for one hour at room temperature (RT) in the dark.
Then, 5 μl of Mixture A is laid out for each hole on a 384-hole microtiter plate, and then to start with 0.5 μl of a solution of the candidate compound in DMSO is added and then 5 μl of Mixture B. The resulting reaction mixture is incubated 1 h at RT in the dark. Then, the reaction is tempered to 28.5° C., and the emitter intensity of the acceptor is determined in a microtiter plate reader after excitation of the donor at 680 nm.
The relative inhibition of the AKAP-PKA interaction is calculated following the formula: 1−(xc−y)/(z−y) where: X=average of readings (n=3) at concentration c; Y=average of measurement data from bead-bead check (n=6); Z=average of measurement data from protein-protein check (n=6). Results:
Surface plasmon resonance analyses for competition in solution were performed with streptavidin-coated sensor chips (GE Healthcare, Uppsala, Sweden). The N-terminal biotinylated peptide AKAP18d-L314E was used, which is a variant of the RH-binding domains of AKAP18δ (Hundsrucker et al., Biochem. J. 396, 297-306, [2006]). The binding of the regulatory subunit of the human PKAII-α or RII-β onto the peptide surface of the AKAP18δ-L314E, or the inhibition of this binding to RII by the compounds of the invention, was measured on a Biacaore 3000 machine (Biacore/GE Healthcare) as previously described (Henn et al., J Biol Chem 279, 26654-26665 [2004]). The compounds were injected for 60 sec at a flow rate of 30 μl/min, and the dissociation phase was measured for 180 sec.
Multititer plates (Corning B.V. Life Sciences, Schiphol-Rijk, Netherlands) were coated with recombinantly produced PKA RIIα (15 ng/hole) by incubation with phosphate buffer containing protease inhibitors (1 h, 22° C.). The plate was then blocked with lactoprotein.
GST-AKA7δ (Hundsrucker et al., Biochem. J. 396, 297-306, [2006]; 15 ng/well) was incubated with and without candidate compounds on the plate for 1 h at 22° C. After washing, it was incubated with antibodies (rabbit) against AKA7δ (A18δ3) and then with a peroxidase-conjugated antirabbit antibody and developed with dye substrate (LumiLight Western Blotting Substrate, Roche Diagnostics, Mannheim, Germany). Luminescence activity was determined in a microplate reader (GeniosPro, Tecan, Durham, N.C., United States) at 10 msec integration.

[1] = class from IC50 values in assays of Examples 1, 2 or 3, read-out: Activity (IC50 class)
[2] = class from IC50 values in assays of Examples 1, 2 or 3
[3] = absolute values stated in structure-activity text, method not specified, read-out: IC50

Sequence of AKAP-PKA interaction (P13861 2-404 limits assumed): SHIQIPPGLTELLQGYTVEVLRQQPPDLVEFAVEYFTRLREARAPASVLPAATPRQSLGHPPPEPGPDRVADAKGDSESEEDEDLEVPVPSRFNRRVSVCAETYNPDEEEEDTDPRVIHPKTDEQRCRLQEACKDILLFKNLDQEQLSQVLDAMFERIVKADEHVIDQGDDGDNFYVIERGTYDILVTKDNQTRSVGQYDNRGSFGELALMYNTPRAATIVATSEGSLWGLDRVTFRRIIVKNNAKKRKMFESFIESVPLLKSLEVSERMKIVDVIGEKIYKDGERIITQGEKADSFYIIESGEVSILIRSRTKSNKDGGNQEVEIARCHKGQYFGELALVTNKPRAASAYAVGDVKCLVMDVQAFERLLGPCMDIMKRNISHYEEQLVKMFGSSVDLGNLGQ

SMILES	IC50 [1] [µM]	other results
O=C1/C(=C/Nc2ccc3scnc3c2)Sc2ccccc21 [T2/29, (2Z)-2-[(1,3-benzothiazole-5-ylamino)methylene]benzothiophene-3-one]	250 to 750	
COC(=O)c1csc(N/C=C2\Sc3ccccc3C2=O)n1 [T2/18, 2-[[(z)-(3-oxobenzothiophene-2-ylidene)methyl]amino]thiazole-4-carboxylic acid methylester]	< 150	
Cc1ccccc1N/C=C1/Sc2ccccc2C1=O [T3/4, (2E)-2-[(2-methylanilino)methylene]benzothiophen-3-one]		Activity in AKAP-PKA interaction assays (in words): abolished activity
O=C1/C(=N/Nc2ncc([N+](=O)[O-])s2)Sc2ccccc21 [T2/52, (2Z)-2-[(5-nitrothiazole-2-yl)hydrazono]benzothiophene-3-one]	< 25	
O=C1/C(=C/Nc2nc3ccccc3s2)Cc2ccccc21 [T2/55, (2e)-2-[(1,3-benzothiazole-2-ylamino)methylene]indane-1-one]	< 250	
O=C1/C(=C/Nc2cc([N+](=O)[O-])ccc2O)Sc2ccccc21 [T2/35, (2Z)-2-[(2-hydroxy-5-nitro-anilino)methylene]benzothiophene-3-one]	250 to 750	
O=C1/C(=C/Nc2nc3ccc(C(F)(F)F)cc3s2)Sc2ccccc21 [T2/27, (2Z)-2-[[[6-(trifluoromethyl)-1,3-benzothiazole-2-yl]amino]methylene]benzothiophene-3-one]	250 to 750	
O=C1/C(=C/Nc2cccc(Br)c2)Sc2ccccc21 [T2/37, (2Z)-2-[(3-bromoanilino)methylene]benzothiophene-3-one]	250 to 750	
Cc1csc(N/N=C2\Sc3ccccc3C2=O)n1 [T2/51, (2Z)-2-[(4-methylthiazole-2-yl)hydrazono]benzothiophene-3-one]	< 25	
COC(=O)c1cnc(N/C=C2\Sc3ccccc3C2=O)s1 [T2/17, 2-[[(z)-(3-oxobenzothiophene-2-ylidene)methyl]amino]thiazole-5-carboxylic acid methylester]		Activity (IC50 class) [2]: 2-[[(z)-(3-oxobenzothiophene-2-ylidene)methyl]amino]thiazole-5-carboxylic acid methylester Activity: A(A)
O=C1/C(=C/Nc2ccc(O)cc2)Sc2ccccc21 [VI, (2Z)-2-[(4-hydroxyanilino)methylene]benzothiophen-3-one, reference compound]		Activity in AKAP-PKA interaction assays (in words): could not be found to show significant reduction of AKAP-PKA interaction
O=C1/C(=C/Nc2nccs2)Sc2ccccc21 [T2/6, (2Z)-2-[(thiazole-2-ylamino)methylene]benzothiophene-3-one]	< 150	IC50 [3]: ~80 µM
O=C1/C(=C/Nc2nc3ccccc3s2)Oc2ccccc21 [T2/57, (2Z)-2-[(1,3-benzothiazole-2-ylamino)methylene]benzofuran-3-one]	250 to 750	
COc1ccc2nc(N/C=C3\Sc4ccccc4C3=O)sc2c1 [T2/24, (2Z)-2-[[(6-methoxy-1,3-benzothiazole-2-yl)amino]methylene]benzothiophene-3-one]	< 150	
O=C1/C(=C/Nc2ncc[nH]2)Sc2ccccc21 [T2/1, (2Z)-2-[(1H-imidazole-2-ylamino)methylene]benzothiophene-3-one]	< 150	IC50 [3]: ~80 µM
O=C1/C(=C\Nc2ccc([N+](=O)[O-])cc2)Sc2ccccc21 [T2/34, (2e)-2-[(4-nitroanilino)methylene]benzothiophene-3-one]	250 to 750	
O=C1/C(=C/Nc2ncc(Cl)s2)Sc2ccccc21 [T2/14, (2Z)-2-[[(5-chlorothiazole-2-yl)amino]methylene]benzothiophene-3-one]	< 150	
O=C1/C(=C/Nc2ncc(Br)s2)Sc2ccccc21 [T2/13, (2Z)-2-[[(5-bromothiazole-2-yl)amino]methylene]benzothiophene-3-one]	< 50	

SMILES	IC50 [1] [µM]	other results
O=C1/C(=C/Nc2nnc(Br)s2)Sc2ccccc21 [T2/32, (2Z)-2-[[(5-bromo-1,3,4-thiadiazol-2-yl)amino]methylene]benzothiophene-3-one]	< 150	
O=C1/C(=C/Nc2ncc3ccccc3n2)Sc2ccccc21 [T2/42, (2Z)-2-[(chinazolin-2-ylamino)methylene]benzothiophene-3-one]	250 to 750	
O=C1/C(=C/Nc2nc3cc(Cl)ccc3o2)Sc2ccccc21 [T2/5, (2Z)-2-[[(5-chloro-1,3-benzoxazole-2-yl)amino]methylene]benzothiophene-3-one]	250 to 750	
O=C1/C(=N/Nc2nccs2)Sc2ccccc21 [T2/50, (2Z)-2-(thiazole-2-ylhydrazono)benzothiophene-3-one]	< 25	
O=C(O)c1cnc(N/N=C2\Sc3ccccc3C2=O)s1 [T2/53, 2-[(2Z)-2-(3-oxobenzothiophene-2-ylidene)hydrazino]thiazole-5-carboxylic acid]	< 25	
O=C(O)c1ccc(N/C=C2\Cc3ccccc3C2=O)cc1 [T2/56, 4-[[(e)-(1-oxoindan-2-ylidene)methyl]amino]benzoic acid]	< 150	
O=C1/C(=C\Nc2cccc3ccccc23)Sc2ccccc21 [T2/39, (2e)-2-[(1-naphthylamino)methylene]benzothiophene-3-one]	250 to 750	Activity in AKAP-PKA interaction assays (in words): barely detectable activity
O=C1/C(=C/Nc2nc3ccccc3s2)Sc2ccccc21 [T2/23, (2Z)-2-[(1,3-benzothiazol-2-ylamino)methylene]-benzothiophen-3-one]		Activity (IC50 class) [2]: (2Z)-2-[(1,3-benzothiazol-2-ylamino)methylene]- benzothiophen-3-one Activity A/B
Cc1csc(N/C=C2\Sc3ccccc3C2=O)n1 [T2/10, (2Z)-2-[[(4-methylthiazole-2-yl)amino]methylene]benzothiophene-3-one]		IC50 relative to that of the unsubstituted mother compound (alkyl substituent on heteroaromatic pentacycle): about 50%
Cc1coc(N/C=C2\Sc3ccccc3C2=O)n1 [T2/4, (2Z)-2-[[(4-methyloxazole-2-yl)amino]methylene]benzothiophene-3-one]	< 50	
O=C1/C(=C/Nc2nc3ccc([N+](=O)[O-])cc3s2)Sc2ccccc21 [T2/25, (2Z)-2-[[(6-nitro-1,3-benzothiazole-2-yl)amino]methylene]benzothiophene-3-one]	< 250	
O=C1/C(=C/Nc2ncns2)Sc2ccccc21 [T2/30, (2Z)-2-[(1,2,4-thiadiazol-5-ylamino)methylene]benzothiophene-3-one]	< 150	
CNC(=O)c1cnc(N/C=C2\Sc3ccccc3C2=O)s1 [T2/20, n-methyl-2-[[(z)-(3-oxobenzothiophene-2-ylidene)methyl]amino]thiazole-5-carboxylic acid amide]	< 250	
O=C1/C(=C/Nc2nncs2)Sc2ccccc21 [T2/31, (2Z)-2-[(1,3,4-thiadiazol-2-ylamino)methylene]benzothiophene-3-one]	< 150	
O=C1/C(=C/Nc2nc3c(F)cc(F)cc3s2)Sc2ccccc21 [T2/26, (2Z)-2-[[(4,6-difluoro-1,3-benzothiazole-2-yl)amino]methylene]benzothiophene-3-one]	250 to 750	
O=C1/C(=C/Nc2nc3ccccc3[nH]2)Sc2ccccc21 [T2/2, (2Z)-2-[(1H-benzimidazole-2-ylamino)methylene]benzothiophene-3-one]	< 150	
N=C(N)c1cnc(N/C=C2\Sc3ccccc3C2=O)s1 [T2/21, 2-[[(Z)-(3-oxobenzothiophen-2-ylidene)methyl]amino]thiazole-5-carboxamidine]		Activity (IC50 class) [2]: 2-[[(Z)-(3-oxobenzothiophen-2-ylidene)methyl]amino]thiazole-5-carboxamidine Activity: A/B
